Source: US12679843B2, “Pyrrolopyrimidine amines as complement inhibitors” (BioCryst Pharmaceuticals, Inc., priority 2020, dated 2026)
pIC50: −log10 of the molar value.

Target: Factor D (Homo sapiens, UniProt P00746)
Assay: Factor D esterolytic assay (Z-Lys-SBzl thioester substrate, DTNB, 405 nm)
Format: biochemical
Conditions: substrate Z-Lys-SBzl 1.29 mM, 100 mM HEPES, 500 mM NaCl, pH 7.5, 10% DMSO, tested a minimum of three times
Method in brief: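 Run in pH 7.5 HEPES (100 mM) with 500 mM NaCl and 10% DMSO, with compound preincubated at room temperature or not before adding 1.29 mM Z-Lys-SBzl. Free thiol released by Factor D reacts with DTNB, and rate is followed at 405 nm minus 690 nm over 600 s. IC50 derives from rate-based inhibition, minimum three replicates.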

Sequence of Factor D (P00746 26-253): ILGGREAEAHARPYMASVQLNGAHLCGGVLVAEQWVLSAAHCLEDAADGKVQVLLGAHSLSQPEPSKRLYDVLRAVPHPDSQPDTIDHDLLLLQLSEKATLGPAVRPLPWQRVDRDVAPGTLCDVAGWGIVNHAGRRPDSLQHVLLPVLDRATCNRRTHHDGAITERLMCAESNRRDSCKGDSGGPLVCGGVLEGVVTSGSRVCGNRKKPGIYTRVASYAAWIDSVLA

Row | Compound | pIC50
1 | Cc1cc(-c2cccnc2)cc2c3c(N)ncnc3n(CC(=O)N3[C@H](C(=O)Nc4cccc(Br)n4)C[C@@]4(C)C[C@@H]34)c12 [Compound 289a, (1R,3S,5R)-2-(2-(4-amino-8-methyl-6-(pyridin-3-yl)-9H-pyrimido[4,5-b]indol-9-yl)acetyl)-N-(6-bromopyridin-2-yl)-5-methyl-2-azabicyclo[3.1.0]hexane-3-carboxamide] | > 7.00
2 | Cc1cc(C(F)(F)F)cc2c3c(N)ncnc3n(CC(=O)N3[C@@H]4C[C@@H]4C[C@H]3C(=O)Nc3cccc(Cl)n3)c12 [Compound 291a, (1R,3S,5R)-2-(2-(4-amino-8-methyl-6-(trifluoromethyl)-9H-pyrimido[4,5-b]indol-9-yl)acetyl)-N-(6-chloropyridin-2-yl)-2-azabicyclo[3.1.0]hexane-3-carboxamide] | > 7.00
3 | C[C@@]12C[C@@H](C(=O)Nc3cccc(Br)n3)N(C(=O)Cn3c4ccc(Br)nc4c4c(N)ncnc43)[C@@H]1C2 [Compound 292a, (1R,3S,5R)-2-(2-(4-amino-6-bromo-9H-pyrido[2′,3′:4,5]pyrrolo[2,3-d]pyrimidin-9-yl)acetyl)-N-(6-bromopyridin-2-yl)-5-methyl-2-azabicyclo[3.1.0]hexane-3-carboxamide] | > 7.00
4 | Nc1ncnc2ccc(CC(=O)N3C[C@H](F)C[C@H]3C(=O)NCc3cccc(Cl)c3F)cc12 [Compound 294c, (2S,4R)-1-(2-(4-aminoquinazolin-6-yl)acetyl)-N-(3-chloro-2-fluorobenzyl)-4-fluoropyrrolidine-2-carboxamide] | < 6.00
5 | Cc1cc(C(F)(F)F)cc2c3c(N)ncnc3n(CC(=O)N3[C@@H]4C[C@@H]4C[C@H]3C(=O)Nc3cncc(Br)n3)c12 [Compound 295a, (1R,3S,5R)-2-(2-(4-amino-8-methyl-6-(trifluoromethyl)-9H-pyrimido[4,5-b]indol-9-yl)acetyl)-N-(6-bromopyrazin-2-yl)-2-azabicyclo[3.1.0]hexane-3-carboxamide] | > 7.00
6 | Cc1cc(C(F)(F)F)cc2c3c(N)ncnc3n(CC(=O)N3[C@H](C(=O)Nc4cncc(Br)n4)C[C@@]4(C)C[C@@H]34)c12 [Compound 296a, (1R,3S,5R)-2-(2-(4-amino-8-methyl-6-(trifluoromethyl)-9H-pyrimido[4,5-b]indol-9-yl)acetyl)-N-(6-bromopyrazin-2-yl)-5-methyl-2-azabicyclo[3.1.0]hexane-3-carboxamide] | > 7.00
7 | CNC(=O)Nc1ccc2c(c1)c1c(N)ncnc1n2CC(=O)N1[C@@H]2C[C@@H]2C[C@H]1C(=O)Nc1cccc(Br)n1 [Compound 297d, (1R,3S,5R)-2-(2-(4-amino-6-(3-methylureido)-9H-pyrimido[4,5-b]indol-9-yl)acetyl)-N-(6-bromopyridin-2-yl)-2-azabicyclo[3.1.0]hexane-3-carboxamide] | > 7.00

Results, then the molecule that gave them:

Row | pIC50 | Compound
8 | > 7.00 | Nc1ncnc2c1c1nc(Br)ccc1n2CC(=O)N1[C@@H]2C[C@@H]2C[C@H]1C(=O)Nc1cccc(Br)n1 [Compound 290g, (1R,3S,5R)-2-(2-(4-amino-6-bromo-9H-pyrido[2′,3′:4,5]pyrrolo[2,3-d]pyrimidin-9-yl)acetyl)-N-(6-bromopyridin-2-yl)-2-azabicyclo[3.1.0]hexane-3-carboxamide]
9 | > 7.00 | Nc1ncnc2c1c1nc(-c3ccccc3)ccc1n2CC(=O)N1[C@@H]2C[C@@H]2C[C@H]1C(=O)Nc1cccc(Br)n1 [Compound 298c, (1R,3S,5R)-2-(2-(4-amino-6-phenyl-9H-pyrido[2′,3′:4,5]pyrrolo[2,3-d]pyrimidin-9-yl)acetyl)-N-(6-bromopyridin-2-yl)-2-azabicyclo[3.1.0]hexane-3-carboxamide]
10 | > 7.00 | C[C@@]12C[C@@H](C(=O)Nc3cccc(Br)n3)N(C(=O)Cn3c4ccc(-c5ccccc5)nc4c4c(N)ncnc43)[C@@H]1C2 [Compound 299a, (1R,3S,5R)-2-(2-(4-amino-6-phenyl-9H-pyrido[2′,3′:4,5]pyrrolo[2,3-d]pyrimidin-9-yl)acetyl)-N-(6-bromopyridin-2-yl)-5-methyl-2-azabicyclo[3.1.0]hexane-3-carboxamide]
